Test results: the supplement of paper PMC10307832

Legend:
Test in all cases: relative viability (nuclei count vs DMSO), 5 days (fraction); higher = more cells survive
[1] = compound: CC1=C(C=CC(=C1)[N+](=O)[O-])NS(=O)(=O)C2=C(C=CC(=C2)Cl)Cl [FH535]
In short: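 Cells of lung cancer lines were placed in 1536-well plates and kept overnight at 37 °C. Pinning then delivered five library-drug doses (not always all listed), spaced by √10, onto plates anchored with vehicle, and the cells were left 5 days without changing medium. One step fixed, permeabilised and stained them with Hoechst, and MetaXpress counted nuclei in 4× images. Viability, as a median over plates, is treated-well nuclei divided by vehicle-well nuclei, with acceptance only at control CV below 25% and at least one doubling.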

[2] = compound: CC1=C(C=CC(=C1)[N+](=O)[O-])NS(=O)(=O)C2=C(C=CC(=C2)Cl)Cl [FH535] + CC1(C)CCC(c2ccc(Cl)cc2)=C(CN2CCN(c3ccc(C(=O)NS(=O)(=O)c4ccc(N[C@H](CCN5CCOCC5)CSc5ccccc5)c(S(=O)(=O)C(F)(F)F)c4)cc3)CC2)C1 [Navitoclax] (partner 0.5 µM)
In short: (§1)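 Lung cancer cell lines, seeded in 1536-well plates, were treated the following day by pin tool with a single drug or with five library-drug doses (not always all listed) in √10 steps on top of a fixed anchor-drug dose. Cells were fixed and nuclei stained in one step after 5 days, and nuclei were counted. Relative viability is the nuclei count for treated wells divided by that for vehicle wells, reported as medians of duplicate plates.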

[3] = compound: CC1=C(C=CC(=C1)[N+](=O)[O-])NS(=O)(=O)C2=C(C=CC(=C2)Cl)Cl [FH535] + C[C@]1(O)C[C@@H](c2nc(-c3ccc4ccc(-c5ccccc5)nc4c3)c3c(N)nccn32)C1 [Linsitinib] (partner 1 µM)
In short: as §1

[4] = compound: CC1=C(C=CC(=C1)[N+](=O)[O-])NS(=O)(=O)C2=C(C=CC(=C2)Cl)Cl [FH535] + CC(C)C[C@H](NC(=O)[C@H](Cc1ccccc1)NC(=O)c1cnccn1)B(O)O [Bortezomib] (partner 0.002 µM)
In short: as §1

[5] = compound: CC1=C(C=CC(=C1)[N+](=O)[O-])NS(=O)(=O)C2=C(C=CC(=C2)Cl)Cl [FH535] + C[C@@H](Oc1cc(-c2cnn(C3CCNCC3)c2)cnc1N)c1c(Cl)ccc(F)c1Cl [Crizotinib] (partner 1 µM)
In short: as §1

[6] = compound: CC1=C(C=CC(=C1)[N+](=O)[O-])NS(=O)(=O)C2=C(C=CC(=C2)Cl)Cl [FH535] + CS(=O)(=O)N1CCN(Cc2cc3nc(-c4cccc5[nH]ncc45)nc(N4CCOCC4)c3s2)CC1 [Pictilisib] (partner 1 µM)
In short: as §1

[7] = compound: CC1=C(C=CC(=C1)[N+](=O)[O-])NS(=O)(=O)C2=C(C=CC(=C2)Cl)Cl [FH535] + CS(=O)(=O)CCNCc1ccc(-c2ccc3ncnc(Nc4ccc(OCc5cccc(F)c5)c(Cl)c4)c3c2)o1 [Lapatinib] (partner 2 µM)
In short: as §1

[8] = compound: CC1=C(C=CC(=C1)[N+](=O)[O-])NS(=O)(=O)C2=C(C=CC(=C2)Cl)Cl [FH535] + COc1cc2c(Oc3ccc(NC(=O)C4(C(=O)Nc5ccc(F)cc5)CC4)cc3F)ccnc2cc1OCCCN1CCOCC1 [Foretinib] (partner 0.25 µM)
In short: as §1

[9] = compound: CC1=C(C=CC(=C1)[N+](=O)[O-])NS(=O)(=O)C2=C(C=CC(=C2)Cl)Cl [FH535] + O=C(c1cc(Cc2n[nH]c(=O)c3ccccc23)ccc1F)N1CCN(C(=O)C2CC2)CC1 [Olaparib] (partner 8 µM)
In short: as §1

[10] = compound: CC1=C(C=CC(=C1)[N+](=O)[O-])NS(=O)(=O)C2=C(C=CC(=C2)Cl)Cl [FH535] + Cc1nc(NC(=O)N2CCC[C@H]2C(N)=O)sc1-c1ccnc(C(C)(C)C(F)(F)F)c1 [Alpelisib] (partner 2 µM)
In short: as §1

[11] = compound: CC1=C(C=CC(=C1)[N+](=O)[O-])NS(=O)(=O)C2=C(C=CC(=C2)Cl)Cl [FH535] + Cc1nc(Nc2ncc(C(=O)Nc3c(C)cccc3Cl)s2)cc(N2CCN(CCO)CC2)n1 [Dasatinib] (partner 0.075 µM)
In short: as §1

[12] = compound: CC1=C(C=CC(=C1)[N+](=O)[O-])NS(=O)(=O)C2=C(C=CC(=C2)Cl)Cl [FH535] + COc1cccc2cc(-c3nc([C@H]4CC[C@H](C(=O)O)CC4)n4ncnc(N)c34)[nH]c12 [OSI-027] (partner 0.5 µM)
In short: as §1

[13] = compound: CC1=C(C=CC(=C1)[N+](=O)[O-])NS(=O)(=O)C2=C(C=CC(=C2)Cl)Cl [FH535] + N=C(N)NC(=N)NCCc1ccccc1 [Phenformin] (partner 250 µM)
In short: as §1

[14] = compound: CC1=C(C=CC(=C1)[N+](=O)[O-])NS(=O)(=O)C2=C(C=CC(=C2)Cl)Cl [FH535] + Cc1cc(Nc2cc(N3CCN(C)CC3)nc(Sc3ccc(NC(=O)C4CC4)cc3)n2)n[nH]1 [Tozasertib] (partner 0.1 µM)
In short: as §1

[15] = compound: CC1=C(C=CC(=C1)[N+](=O)[O-])NS(=O)(=O)C2=C(C=CC(=C2)Cl)Cl [FH535] + CCNC(=O)c1noc(-c2cc(C(C)C)c(O)cc2O)c1-c1ccc(CN2CCOCC2)cc1 [Luminespib] (partner 0.01 µM)
In short: as §1

With NCI-H1299 the relative viability ([1]; 0.04 µM) was 1.01, the relative viability ([1]; 0.1265 µM) was 1.01 and the relative viability ([1]; 0.4 µM) was 1.02. For the same cell line, the relative viability ([1]; 1.265 µM) was 0.932, the relative viability ([2]; first compound 0.04 µM) was 1.04 and the relative viability ([2]; first compound 0.1265 µM) was 1.07. The relative viability ([2]; first compound 0.4 µM) was 1.08, the relative viability ([2]; first compound 1.265 µM) was 0.954 and the relative viability ([3]; first compound 0.04 µM) was 0.98. For the same cell line, the relative viability ([3]; first compound 0.1265 µM) was 0.978, the relative viability ([3]; first compound 0.4 µM) was 0.957 and the relative viability ([3]; first compound 1.265 µM) was 0.927. It also gave a relative viability ([4]; first compound 0.04 µM) of 1.03, a relative viability ([4]; first compound 0.1265 µM) of 1.03 and a relative viability ([4]; first compound 0.4 µM) of 1.07. The relative viability ([4]; first compound 1.265 µM) was 0.809, the relative viability ([5]; first compound 0.04 µM) was 1 and the relative viability ([5]; first compound 0.1265 µM) was 0.932. It also gave a relative viability ([5]; first compound 0.4 µM) of 0.966, a relative viability ([5]; first compound 1.265 µM) of 0.876 and a relative viability ([6]; first compound 0.04 µM) of 0.736. For the same cell line, the relative viability ([6]; first compound 0.1265 µM) was 0.8, the relative viability ([6]; first compound 0.4 µM) was 0.772 and the relative viability ([6]; first compound 1.265 µM) was 0.712. For the same cell line, the relative viability ([7]; first compound 0.04 µM) was 0.979, the relative viability ([7]; first compound 0.1265 µM) was 0.947 and the relative viability ([7]; first compound 0.4 µM) was 0.963. It also gave a relative viability ([7]; first compound 1.265 µM) of 0.76, a relative viability ([8]; first compound 0.04 µM) of 1.12 and a relative viability ([8]; first compound 0.1265 µM) of 1.07. For the same cell line, the relative viability ([8]; first compound 0.4 µM) was 1.12, the relative viability ([8]; first compound 1.265 µM) was 1.03 and the relative viability ([9]; first compound 0.04 µM) was 1.01. The relative viability ([9]; first compound 0.1265 µM) was 1.03, the relative viability ([9]; first compound 0.4 µM) was 0.973 and the relative viability ([9]; first compound 1.265 µM) was 0.777. It also gave a relative viability ([10]; first compound 0.04 µM) of 1.05, a relative viability ([10]; first compound 0.1265 µM) of 0.983 and a relative viability ([10]; first compound 0.4 µM) of 1.05. For the same cell line, the relative viability ([10]; first compound 1.265 µM) was 1.07.
Cell Line NCI-H1623 has a relative viability ([1]; 0.04 µM) of 1.02, a relative viability ([1]; 0.1265 µM) of 0.948 and a relative viability ([1]; 0.4 µM) of 0.991. It also gave a relative viability ([1]; 1.265 µM) of 0.912, a relative viability ([11]; first compound 0.04 µM) of 0.515 and a relative viability ([11]; first compound 0.1265 µM) of 0.468. It also gave a relative viability ([11]; first compound 0.4 µM) of 0.508, a relative viability ([11]; first compound 1.265 µM) of 0.478 and a relative viability ([12]; first compound 0.04 µM) of 0.424. For the same cell line, the relative viability ([12]; first compound 0.1265 µM) was 0.525, the relative viability ([12]; first compound 0.4 µM) was 0.451 and the relative viability ([12]; first compound 1.265 µM) was 0.413. For the same cell line, the relative viability ([13]; first compound 0.04 µM) was 0.551, the relative viability ([13]; first compound 0.1265 µM) was 0.523 and the relative viability ([13]; first compound 0.4 µM) was 0.495. For the same cell line, the relative viability ([13]; first compound 1.265 µM) was 0.468, the relative viability ([8]; first compound 0.04 µM) was 0.816 and the relative viability ([8]; first compound 0.1265 µM) was 0.855. It also gave a relative viability ([8]; first compound 0.4 µM) of 0.823, a relative viability ([8]; first compound 1.265 µM) of 0.777 and a relative viability ([14]; first compound 0.04 µM) of 0.391. For the same cell line, the relative viability ([14]; first compound 0.1265 µM) was 0.426, the relative viability ([14]; first compound 0.4 µM) was 0.426 and the relative viability ([14]; first compound 1.265 µM) was 0.45. The relative viability ([15]; first compound 0.04 µM) was 0.609, the relative viability ([15]; first compound 0.1265 µM) was 0.574 and the relative viability ([15]; first compound 0.4 µM) was 0.513. The relative viability ([15]; first compound 1.265 µM) was 0.509.
